From patent EP0153538A1, “Derivatives of melilotic acid, and medicaments containing them” (Laboratoire Marcel Richard Société anonyme dite, priority 1984, dated 1985)
Like-named read-outs stand apart in the source and are kept apart here.

Legend:
Solubility (qualitative) = type: physicochemical
Experimental: Plus particulièrement, l'acide fluoro-5 acétyl mélilotique se présente sous la forme d'une poudre cristalline blanche, peu soluble dans l'eau, mais soluble dans l'alcool, l'acétone et dans les solvants organiques usuels. Son point de fusion est de 96-98°C.
12 g d'acide fluoro-5 acétoxy-2 cinnamique sont dissous dans 120cm3 acétate d'éthyle avec 1,5 g de palladium sur charbon à 10 % et hydro- gènés dans l'appareil de Parr sous 5 atmosphères d'hydrogène pendant 1 heure; on filtre et concentre sous vide pour obtenir un résidu cristallisé d'acide fluoro-5 acétylmélilotique pur peu soluble dans l'eau, soluble dans l'alcool, l'acétone et les solvants organiques usuels.

[1] = Acute toxicity in male SWISS mice; conditions: mouse, in vivo, souris mâle SWISS, read-out: toxicité (converted)
Experimental: Sa toxicité est de 1 500 mg/Kg par voie orale et de 750 mg/Kg par voie intrapéritonéale, déterminée sur la souris mâle-de la souche SWISS.

[2] = system: agrégation plaquettaire provoquée par l'ADP; test: Inhibition of ADP-induced platelet aggregation, human blood; type: cell-based; conditions: sang humain, 100 mg/Kg
Experimental: (§1) Ce produit inhibe l'agrégation plaquettaire provoquée par l'ADP (adénosine diphosphate) : • sur le sang humain, inhibition de 40 % à 100 mg/Kg, sur le rat et le lapin, inhibition de 60 Z à 100 mg/Kg.

[3] = system: agrégation plaquettaire provoquée par l'ADP; test: Inhibition of ADP-induced platelet aggregation, rat; type: in vivo; conditions: 100 mg/Kg
Experimental: as §1

[4] = system: agrégation plaquettaire provoquée par l'ADP; test: Inhibition of ADP-induced platelet aggregation, rabbit; type: in vivo; conditions: lapin, 100 mg/Kg
Experimental: as §1

rat anesthésié = test: Blood pressure in the anaesthetised rat after IV administration; type: in vivo; conditions: rat anesthésié à l'éthylméthane, IV 100 mg/Kg
Experimental: Sur le rat anesthésié à l'éthylméthane,on enregistre après administration IV. de 100 mg/Kg de produit selon l'invention une légère hypotension, soit une baisse de 15 %.

chien anesthésié = test: Cardiovascular and respiratory effects in the pentobarbital-anaesthetised dog after IV injection; type: in vivo; conditions: chien anesthésié au Pentobarbital, IV 50 mg/Kg
souris [5] = test: Phenylbenzoquinone test (analgesia) in mice; type: in vivo; conditions: test à la phénylbenzoquinone, 500 mg/Kg
Experimental: (§2) En ce qui concerne l'activité analgésique, le produit donne dans le test à la phénylbenzoquinone et dans le test à la plaque chauffante chez la souris une protection de 88 % à 500 mg/Kg.

souris [6] = test: Hot plate test (analgesia) in mice; type: in vivo; conditions: test à la plaque chauffante, 500 mg/Kg
Experimental: as §2

[7] = system: artériopathies périphériques, oedème de la cheville, varices; test: Therapeutic application (peripheral arteriopathies, ankle oedema, varices); type: in vivo

With `CC(=O)Oc1ccc(F)cc1CCC(=O)O` [acide fluoro-5 acétyl mélilotique] the “solubilité dans l'alcool, l'acétone et les solvants organiques usuels” value (Solubility (qualitative); alcool, acétone, solvants organiques usuels) was “soluble”, the “solubilité dans l'eau” value (Solubility (qualitative); eau) was “peu soluble” and the LD50 ([1]; ip, voie intrapéritonéale) was 750 mg/kg. For the same compound, the LD50 ([1]; po, voie orale) was 1500 mg/kg, the “inhibition de l'agrégation plaquettaire provoquée par l'ADP” value [2] was 40% and the inhibition de l'agrégation plaquettaire provoquée par l'ADP [3] was 60%. The “inhibition de l'agrégation plaquettaire provoquée par l'ADP” value [4] was 60%, the “hypotension (baisse)” value (rat anesthésié) was 15% and the “augmentation du débit” value (chien anesthésié) was 65%. For the same compound, the battements (chien anesthésié) was “renforcement”, the “diminution du rythme respiratoire” value (chien anesthésié) was 25% and the fréquence cardiaque (chien anesthésié) was “sans modification”. The hypotension (chien anesthésié) was 7%, the protection (souris [5]) was 88% and the protection (souris [6]) was 88%. For the same compound, the “application thérapeutique” value [7] was “résultats favorables”.
